The source made the active and inactive calls.
Experiments:
[1] = molecular target: T1, Kappa-type opioid receptor (Homo sapiens, UniProt P41145); assay: SAR analysis of small molecule antagonists of the kappa opioid receptor via a luminescent beta-arrestin assay - Set 6. [Related pubchem assays (depositor defined):AID1777, AID1778, AID1785, AID1786, AID1966, AID2133, AID2136, AID2285]; type: functional
Mu-type opioid receptor = Mu-type opioid receptor (Homo sapiens, UniProt P35372); assay: SAR Analysis of Antagonists of the MOR Receptor using an Image-Based Assay - Set 3. [Related pubchem assays (depositor defined):AID1777, AID1785, AID1786, AID1966, AID2133, AID2136, AID2284, AID2285, AID2420]; type: functional
Chain of Mu-type opioid receptor (P35372 whole entry): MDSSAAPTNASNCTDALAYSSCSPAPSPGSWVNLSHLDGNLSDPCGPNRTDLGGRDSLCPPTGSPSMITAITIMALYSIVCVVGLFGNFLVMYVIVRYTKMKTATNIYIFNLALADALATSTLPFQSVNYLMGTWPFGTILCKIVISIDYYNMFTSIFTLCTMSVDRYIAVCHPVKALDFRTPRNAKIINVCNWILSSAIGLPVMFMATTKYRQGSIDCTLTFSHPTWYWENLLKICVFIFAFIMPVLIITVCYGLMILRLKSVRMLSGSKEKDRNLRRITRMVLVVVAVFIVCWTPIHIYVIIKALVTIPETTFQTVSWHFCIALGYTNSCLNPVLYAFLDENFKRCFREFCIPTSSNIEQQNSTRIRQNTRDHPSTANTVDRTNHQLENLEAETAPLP

[2] = molecular target: T1, Kappa-type opioid receptor; assay: SAR analysis of Antagonists of the Kappa Opioid Receptor (KOR) using an Image-Based Assay - Set 4. [Related pubchem assays (depositor defined):AID1777, AID1785]; type: functional
[3] = molecular target: Delta-type opioid receptor (Homo sapiens, UniProt P41143); assay: SAR Analysis of Antagonists of the DOR Receptor using an Image-Based Assay - Set 3. [Related pubchem assays (depositor defined):AID1777, AID1785]; type: functional;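 also: U2OS cells expressing DOR1 and beta-arrestin GFP stimulated with 100 nM SNC80; imaging of GFP-tagged beta-arrestin moving into spots after receptor activation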
Chain of Delta-type opioid receptor (P41143 whole entry): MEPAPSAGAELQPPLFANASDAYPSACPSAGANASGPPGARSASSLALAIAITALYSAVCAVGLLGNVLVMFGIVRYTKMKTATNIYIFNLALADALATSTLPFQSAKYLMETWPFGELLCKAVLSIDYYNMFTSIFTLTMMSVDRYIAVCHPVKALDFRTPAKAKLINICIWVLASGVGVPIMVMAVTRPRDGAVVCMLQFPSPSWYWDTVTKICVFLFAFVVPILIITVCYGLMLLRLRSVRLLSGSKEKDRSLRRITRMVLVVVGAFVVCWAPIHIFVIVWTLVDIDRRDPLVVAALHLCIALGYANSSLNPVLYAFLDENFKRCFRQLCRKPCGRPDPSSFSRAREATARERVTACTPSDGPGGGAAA

[4] = molecular target: T1, Kappa-type opioid receptor; assay: SAR analysis of small molecule antagonists of the kappa opioid receptor via a luminescent beta-arrestin assay - Set 3. [Related pubchem assays (depositor defined):AID1777, AID1778, AID1785, AID1786, AID1966, AID2133, AID2136, AID2285, AID2495]; type: functional
[5] = molecular target: Type-1 angiotensin II receptor (Homo sapiens, UniProt P30556); assay: AT1 receptor agonists, dose response, selectivity assay for APJ receptor agonist project, cell-based, uHTS hits (AID 488865); type: functional;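 also: beta-arrestin recruitment to AT1 measured by enzyme fragment complementation luminescence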
Chain of Type-1 angiotensin II receptor (P30556 whole entry, the tested form may be a part): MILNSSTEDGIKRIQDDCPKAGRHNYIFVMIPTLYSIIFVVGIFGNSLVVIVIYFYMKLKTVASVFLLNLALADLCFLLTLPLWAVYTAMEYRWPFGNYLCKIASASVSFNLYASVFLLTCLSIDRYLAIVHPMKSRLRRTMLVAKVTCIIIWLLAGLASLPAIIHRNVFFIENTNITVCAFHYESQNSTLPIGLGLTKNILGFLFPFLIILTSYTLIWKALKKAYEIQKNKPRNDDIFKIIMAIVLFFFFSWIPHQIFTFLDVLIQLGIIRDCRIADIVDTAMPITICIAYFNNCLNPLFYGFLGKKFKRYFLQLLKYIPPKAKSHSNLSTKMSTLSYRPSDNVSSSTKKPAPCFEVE

Coagulation factor XII = molecular target: T2, Coagulation factor XII (Homo sapiens, UniProt P00748); assay: Factor XIIa Dose Response Confirmation from Single Well HTS. [Related pubchem assays (depositor defined):AID701]; type: functional
T2 sequence (P00748 whole entry): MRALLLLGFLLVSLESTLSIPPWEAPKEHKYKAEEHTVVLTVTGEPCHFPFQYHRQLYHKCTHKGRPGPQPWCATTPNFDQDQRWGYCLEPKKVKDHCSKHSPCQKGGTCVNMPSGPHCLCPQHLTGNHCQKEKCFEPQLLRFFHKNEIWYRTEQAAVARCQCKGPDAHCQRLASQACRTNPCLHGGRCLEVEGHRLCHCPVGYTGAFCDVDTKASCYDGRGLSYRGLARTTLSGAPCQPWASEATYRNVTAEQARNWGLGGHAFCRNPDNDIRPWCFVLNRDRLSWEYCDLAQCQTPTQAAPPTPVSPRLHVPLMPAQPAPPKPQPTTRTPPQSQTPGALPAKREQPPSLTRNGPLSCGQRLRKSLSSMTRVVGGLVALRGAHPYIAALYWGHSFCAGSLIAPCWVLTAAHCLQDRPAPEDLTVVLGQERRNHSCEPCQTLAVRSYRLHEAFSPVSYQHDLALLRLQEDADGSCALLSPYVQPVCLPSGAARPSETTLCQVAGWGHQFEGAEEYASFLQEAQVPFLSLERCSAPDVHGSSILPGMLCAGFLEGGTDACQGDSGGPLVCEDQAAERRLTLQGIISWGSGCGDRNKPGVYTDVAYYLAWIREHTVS

[6] = molecular target: Envelope glycoprotein gp160 (Human immunodeficiency virus 1, UniProt Q6QLK5); assay: inhibitors of HIV fusion peptide binding, primary screen, biochemical, uHTS, fluorescence dequenching (AID 1986)
Chain of Envelope glycoprotein gp160 (Q6QLK5 whole entry, the tested form may be a part): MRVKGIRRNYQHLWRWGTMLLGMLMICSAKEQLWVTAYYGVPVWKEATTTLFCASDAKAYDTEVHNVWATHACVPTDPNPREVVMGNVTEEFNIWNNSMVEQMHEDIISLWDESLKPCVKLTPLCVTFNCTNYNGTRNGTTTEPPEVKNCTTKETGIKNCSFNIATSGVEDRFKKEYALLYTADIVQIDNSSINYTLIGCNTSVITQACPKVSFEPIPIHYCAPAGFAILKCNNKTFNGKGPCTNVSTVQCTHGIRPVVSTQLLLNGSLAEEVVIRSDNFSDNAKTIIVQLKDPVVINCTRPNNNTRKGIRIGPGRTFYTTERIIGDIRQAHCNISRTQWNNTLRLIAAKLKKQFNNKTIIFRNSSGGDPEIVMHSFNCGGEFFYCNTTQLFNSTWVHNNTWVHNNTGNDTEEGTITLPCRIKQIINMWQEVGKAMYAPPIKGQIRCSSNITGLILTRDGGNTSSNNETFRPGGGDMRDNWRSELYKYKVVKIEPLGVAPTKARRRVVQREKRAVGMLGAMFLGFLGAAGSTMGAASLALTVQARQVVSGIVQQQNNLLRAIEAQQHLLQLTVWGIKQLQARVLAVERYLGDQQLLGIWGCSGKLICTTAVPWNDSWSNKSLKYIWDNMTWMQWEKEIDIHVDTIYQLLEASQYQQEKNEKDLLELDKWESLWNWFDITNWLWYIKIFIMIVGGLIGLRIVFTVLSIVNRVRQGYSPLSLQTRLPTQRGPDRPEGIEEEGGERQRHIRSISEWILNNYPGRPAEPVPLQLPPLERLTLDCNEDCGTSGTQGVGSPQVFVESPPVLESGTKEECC

[7] = molecular target: T3, Short transient receptor potential channel 4 (Mus musculus, UniProt Q9QUQ5); assay: mouse TRPC4 channel inhibitors, dose response, cell-based, HEK293 TRPC4/mu-opioid, Fluo-4 calcium (AID 434942); type: functional;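 also: potency of inhibitors blocking the TRPC4 calcium response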
T3 sequence (Q9QUQ5 whole entry): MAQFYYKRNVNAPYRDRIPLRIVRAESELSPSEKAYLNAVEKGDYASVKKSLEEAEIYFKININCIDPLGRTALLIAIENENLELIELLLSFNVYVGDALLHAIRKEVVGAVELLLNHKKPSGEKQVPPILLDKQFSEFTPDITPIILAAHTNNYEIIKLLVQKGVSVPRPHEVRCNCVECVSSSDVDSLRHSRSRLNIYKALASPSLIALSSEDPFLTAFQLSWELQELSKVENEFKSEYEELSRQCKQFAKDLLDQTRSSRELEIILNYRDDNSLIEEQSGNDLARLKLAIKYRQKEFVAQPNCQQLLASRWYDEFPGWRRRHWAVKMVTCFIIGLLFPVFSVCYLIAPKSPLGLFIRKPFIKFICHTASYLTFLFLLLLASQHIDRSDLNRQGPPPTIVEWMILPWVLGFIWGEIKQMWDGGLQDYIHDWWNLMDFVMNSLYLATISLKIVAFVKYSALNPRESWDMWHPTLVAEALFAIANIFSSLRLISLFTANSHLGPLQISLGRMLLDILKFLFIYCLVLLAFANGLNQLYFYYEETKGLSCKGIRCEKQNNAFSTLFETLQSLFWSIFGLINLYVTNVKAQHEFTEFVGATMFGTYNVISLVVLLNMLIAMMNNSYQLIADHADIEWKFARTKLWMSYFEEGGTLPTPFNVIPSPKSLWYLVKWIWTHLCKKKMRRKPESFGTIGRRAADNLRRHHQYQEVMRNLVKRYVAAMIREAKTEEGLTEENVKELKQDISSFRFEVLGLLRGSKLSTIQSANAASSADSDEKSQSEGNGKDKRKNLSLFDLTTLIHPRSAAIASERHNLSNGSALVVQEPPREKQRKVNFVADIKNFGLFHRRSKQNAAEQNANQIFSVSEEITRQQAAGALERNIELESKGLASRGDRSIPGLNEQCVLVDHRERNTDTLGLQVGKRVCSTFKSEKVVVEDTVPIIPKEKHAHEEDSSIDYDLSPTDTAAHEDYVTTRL

Mucolipin-3 = Mucolipin-3 (Homo sapiens, UniProt Q8TDD5); assay: Fluorescence counterscreen assay for […] agonists: dose response cell-based high-throughput screening assay to identify agonists of the transient receptor potential channel ML3 (TRPML3). [Related pubchem assays: 1424, 1448 ]; type: functional
Chain of Mucolipin-3 (Q8TDD5 whole entry): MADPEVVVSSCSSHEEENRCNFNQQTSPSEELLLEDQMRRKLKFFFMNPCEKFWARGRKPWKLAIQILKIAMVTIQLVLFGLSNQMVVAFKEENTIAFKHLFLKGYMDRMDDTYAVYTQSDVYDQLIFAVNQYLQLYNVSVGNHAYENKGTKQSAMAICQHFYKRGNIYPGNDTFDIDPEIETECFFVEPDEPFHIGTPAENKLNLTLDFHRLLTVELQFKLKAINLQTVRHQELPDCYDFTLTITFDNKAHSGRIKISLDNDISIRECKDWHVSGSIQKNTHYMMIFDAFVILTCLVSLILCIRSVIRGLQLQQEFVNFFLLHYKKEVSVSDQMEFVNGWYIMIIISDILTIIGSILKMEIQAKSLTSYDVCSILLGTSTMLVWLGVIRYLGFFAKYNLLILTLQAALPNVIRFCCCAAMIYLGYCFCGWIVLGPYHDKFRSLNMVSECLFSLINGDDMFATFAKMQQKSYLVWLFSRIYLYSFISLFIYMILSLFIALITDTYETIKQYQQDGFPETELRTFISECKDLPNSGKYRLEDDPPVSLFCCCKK

[8] = molecular target: T4, High affinity choline transporter 1 (Homo sapiens, UniProt Q9GZV3); assay: CHT inhibitors, dose response, cell-based, 5-point CRC, membrane potential dye (AID 504840); type: functional
T4 sequence (Q9GZV3 whole entry): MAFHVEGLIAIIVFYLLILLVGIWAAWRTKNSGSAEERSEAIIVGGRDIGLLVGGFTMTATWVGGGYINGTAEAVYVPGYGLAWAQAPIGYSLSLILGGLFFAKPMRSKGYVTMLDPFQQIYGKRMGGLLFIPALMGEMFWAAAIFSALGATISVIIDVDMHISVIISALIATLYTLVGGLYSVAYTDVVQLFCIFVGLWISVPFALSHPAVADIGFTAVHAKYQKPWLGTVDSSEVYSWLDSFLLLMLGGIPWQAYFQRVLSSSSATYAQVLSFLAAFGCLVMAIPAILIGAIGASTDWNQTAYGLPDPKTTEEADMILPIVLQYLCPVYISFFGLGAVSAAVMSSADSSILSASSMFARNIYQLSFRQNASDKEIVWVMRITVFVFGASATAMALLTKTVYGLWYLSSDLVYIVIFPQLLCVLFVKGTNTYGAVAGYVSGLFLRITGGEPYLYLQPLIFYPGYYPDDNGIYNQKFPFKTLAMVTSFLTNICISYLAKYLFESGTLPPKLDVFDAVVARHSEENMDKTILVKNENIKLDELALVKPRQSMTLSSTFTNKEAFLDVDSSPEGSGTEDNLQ

Ion channel NompC = Ion channel NompC (Danio rerio, UniProt Q7T1G6); assay: Dose response cell-based high-throughput screening assay for agonists of the transient receptor potential channel N1 (TRPN1). [Related pubchem assays (depositor defined):AID1424, AID1448]; type: functional
Chain of Ion channel NompC (Q7T1G6 whole entry): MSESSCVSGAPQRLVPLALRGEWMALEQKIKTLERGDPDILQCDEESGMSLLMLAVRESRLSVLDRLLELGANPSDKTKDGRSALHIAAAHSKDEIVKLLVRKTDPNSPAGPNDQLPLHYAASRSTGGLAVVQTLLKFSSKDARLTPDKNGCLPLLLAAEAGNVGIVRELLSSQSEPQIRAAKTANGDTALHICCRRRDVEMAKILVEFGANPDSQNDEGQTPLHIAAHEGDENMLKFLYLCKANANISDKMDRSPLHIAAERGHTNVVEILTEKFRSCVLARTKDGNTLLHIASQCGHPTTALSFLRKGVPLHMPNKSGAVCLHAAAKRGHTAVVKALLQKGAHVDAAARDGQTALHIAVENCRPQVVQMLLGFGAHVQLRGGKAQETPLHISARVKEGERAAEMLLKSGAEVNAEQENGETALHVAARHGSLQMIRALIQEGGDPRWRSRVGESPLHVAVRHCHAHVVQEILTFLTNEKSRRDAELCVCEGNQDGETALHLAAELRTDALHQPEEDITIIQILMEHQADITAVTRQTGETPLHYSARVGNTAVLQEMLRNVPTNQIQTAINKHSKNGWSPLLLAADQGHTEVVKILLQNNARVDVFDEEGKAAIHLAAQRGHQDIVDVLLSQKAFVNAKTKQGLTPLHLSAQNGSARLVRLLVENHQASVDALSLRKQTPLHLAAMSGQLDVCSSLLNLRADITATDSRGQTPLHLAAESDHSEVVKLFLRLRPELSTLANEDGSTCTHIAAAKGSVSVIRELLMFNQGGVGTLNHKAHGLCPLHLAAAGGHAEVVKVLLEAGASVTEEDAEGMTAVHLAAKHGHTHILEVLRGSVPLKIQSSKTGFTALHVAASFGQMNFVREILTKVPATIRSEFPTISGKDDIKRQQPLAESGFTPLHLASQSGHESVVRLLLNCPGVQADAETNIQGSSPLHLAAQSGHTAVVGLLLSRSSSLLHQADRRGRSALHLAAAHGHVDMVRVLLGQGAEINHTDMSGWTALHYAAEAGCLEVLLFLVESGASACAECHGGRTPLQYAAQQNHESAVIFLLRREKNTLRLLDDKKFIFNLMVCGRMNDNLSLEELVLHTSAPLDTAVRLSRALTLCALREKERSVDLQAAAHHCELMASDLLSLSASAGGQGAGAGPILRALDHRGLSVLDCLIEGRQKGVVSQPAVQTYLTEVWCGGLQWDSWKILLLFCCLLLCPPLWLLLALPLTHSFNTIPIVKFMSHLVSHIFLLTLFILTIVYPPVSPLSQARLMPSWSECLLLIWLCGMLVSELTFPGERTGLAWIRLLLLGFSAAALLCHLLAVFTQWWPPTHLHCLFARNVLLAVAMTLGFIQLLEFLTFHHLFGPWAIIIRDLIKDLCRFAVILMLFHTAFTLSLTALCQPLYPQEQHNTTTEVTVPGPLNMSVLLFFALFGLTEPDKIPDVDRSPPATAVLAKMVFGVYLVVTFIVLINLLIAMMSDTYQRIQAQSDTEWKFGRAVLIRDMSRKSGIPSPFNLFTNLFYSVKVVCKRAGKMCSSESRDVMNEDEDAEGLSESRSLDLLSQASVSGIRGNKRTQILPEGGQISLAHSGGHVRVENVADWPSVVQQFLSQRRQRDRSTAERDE

T1 sequence (P41145 whole entry): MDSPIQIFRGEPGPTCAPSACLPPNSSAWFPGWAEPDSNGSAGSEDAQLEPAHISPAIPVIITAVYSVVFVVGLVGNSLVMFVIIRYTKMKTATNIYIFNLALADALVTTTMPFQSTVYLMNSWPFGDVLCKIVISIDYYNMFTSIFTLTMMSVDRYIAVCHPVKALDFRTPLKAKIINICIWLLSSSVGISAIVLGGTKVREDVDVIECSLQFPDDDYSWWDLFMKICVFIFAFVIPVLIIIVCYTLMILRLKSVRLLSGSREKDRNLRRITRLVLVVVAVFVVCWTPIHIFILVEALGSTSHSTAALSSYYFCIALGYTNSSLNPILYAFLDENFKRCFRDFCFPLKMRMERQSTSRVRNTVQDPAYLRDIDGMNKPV

## O=C(Cn1c(=O)c2cccn2c2cc(Br)cnc21)NCCCN1CCN(c2ccc3c(c2)OCO3)CC1
[1]
  IC50: 2.42 µM (active)
Mu-type opioid receptor
  IC50: > 32 µM (inactive)
[2]
  IC50: 0.147 µM (active)
[3]
  IC50: > 32 µM (inactive)
[4]
  IC50: 3.81 µM (active)

## Cc1cc(C)n2nc3nc(N4CCCCC4)nc(-c4ccco4)c3c2n1
[5]
  EC50: > 100 µM (inactive)

## Cc1cccc(C)c1OCC(=O)N/N=C/c1cc2c(cc1[N+](=O)[O-])OCO2
Coagulation factor XII
  IC50: > 50 µM (inactive)

## CCOc1ccc(NC(=O)c2cnn3c(O)cc(C4CCN(C(=O)OC(C)(C)C)CC4)nc23)cc1
[6]
  IC50: > 99 µM (inactive)
[7]
  EC50: 4.22 µM (active)

## CC(C)(C)S(=O)(=O)/C(C#N)=N/Nc1ccc(Cl)cc1
Mucolipin-3
  EC50: > 29.9 µM (not active)
[8]
  IC50: 1.32 µM (active)
Ion channel NompC
  EC50: > 29.9 µM (inactive)

Reference: ChEMBL document CHEMBL1201862, “PubChem BioAssay data set” (2004)
